In the METLIN SMRT retention time set (Domingo-Almenara et al. 2019):

Test: gradient 5% acetonitrile 3 min, to 50% in 2 min, to 85% in 15 min, held 3 min, 100 µL/min
Details: column: Zorbax Extend-C18 2.1 x 50 mm; eluents: water / acetonitrile, 0.1% formic acid
Outline: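 Each retention time is based on an adduct peak selected computationally and verified by manual inspection. Measurements used HPLC–quadrupole time-of-flight mass spectrometry in positive and negative ionization mode on mixtures of ~100 pure standards. Chromatography ran on a Zorbax Extend-C18 column (2.1 × 50 mm, 1.8 μm) at 100 μL/min with water and acetonitrile, each containing 0.1% formic acid, and dead and dwell volumes of 40 μL and 900 μL.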

SMILES	RP-LC retention time [s]
CC(=O)NCc1ccc(-c2noc(Cc3c(F)cccc3Cl)n2)s1	834
O=C(Nc1cc(F)cc(F)c1)Nc1cccc(-c2nccnc2N2CCOCC2)c1	940
Cc1ccc(Nc2nc(N3CCN(C(=O)c4ccco4)CC3)nc3[nH]ncc23)cc1	616
CCc1ccc(-c2nc(C3CC(=O)N(c4ccc(F)cc4)C3)no2)cc1 (centres undefined)	1110
CSc1ccc(CNC(=O)c2cc3c(=O)n(Cc4ccccc4)ccc3nc2C)cc1	870
Cc1ccccc1-c1nc(N)n(C(=O)C(C)(C)C)n1	1100
COc1ccc2[nH]cc(CCN3CC(C(=O)Nc4cc(C)ccc4C)CC3=O)c2c1 (centres undefined)	774
COc1ccc(-c2c(C(=O)NCc3cccs3)nc3ccccn23)cc1	828
COc1ccc(C(=O)NCc2ccc3c(c2)ncn3C(C)C)cc1F	632
CCCc1c(C(=O)O)nnn1-c1cc(C)ccc1F	787
Cc1sc(NC(=O)c2cccs2)nc1-c1ccc2c(c1)NC(=O)CO2	842
COc1cccc(NC(=O)c2sc(C)nc2-c2ccc([N+](=O)[O-])cc2)c1	849
Cc1noc(-c2ccc(OC3CN(C(=O)c4cc(F)ccc4F)C3)cc2)n1	868
CCN(CC)C(=O)C1C(=O)NC2(C)CC1c1ccccc1O2 (centres undefined)	716
COc1cccc(N2CCN(c3ccnc(SCC(=O)Nc4ccc(Cl)cc4F)n3)CC2)c1	941
COC(=O)c1cnc2nc(C)ccc2c1NCc1ccccc1	658
CCC1CN2C=Nc3oc(C)c(C(=O)Nc4ccc(C)c(F)c4)c3C2=N1 (centres undefined)	689
CCOCCCNC(=O)Cn1nc(C)c2nn(-c3ccc(Cl)cc3)c(-n3cccc3)c2c1=O	898
Cn1c(=O)c(C(=O)NCc2ccccc2Cl)nc2cccnc21	728

SMILES	RP-LC retention time [s]
O=C(O)c1cccnc1NCc1cccc(F)c1	655
Fc1ccc(Nc2nc(NCC3CCCO3)nc3c2cnn3-c2ccccc2)cc1 (centres undefined)	1050
COc1ccc(-c2nc(C)cc(C)c2CNS(=O)(=O)c2ccc(C)cc2)cc1	670
Cn1nc2c(c1NC(=O)C1(c3ccc(Cl)cc3)CCCC1)CCC2	907
Cc1c(-c2ccnc(N3CCN(Cc4ccccc4)CC3)n2)cnc2nc(-c3ccccc3)nn12	713
Cc1ccc(C)c(N2CCN(Cc3nc4nc(C)cc(N5CCN(C)CC5)n4n3)CC2)c1	593
CCc1ccc(-n2cc(C(=O)OCc3cc(=O)n4ccccc4n3)c3ccccc3c2=O)cc1	991
CCc1nc(-c2cccc(NC(=O)c3cncc(Br)c3)c2)no1	926
CN(C)CCSc1ncccc1C(=O)NCc1cccs1	583
CCN(C(=O)CCc1ccccc1)c1nc(-c2ccccc2)cs1	1320
CCN1C(=O)c2ccccc2Oc2ccc(C(=O)NCc3ccc(C)cc3)cc21	958
CS(=O)(=O)c1ccccc1C(=O)Nc1nnc(-c2cc(Cl)sc2Cl)o1	735
Cc1nc(Nc2ccc(F)cn2)sc1C(=O)NCCc1ccc(Cl)cc1	936
Cn1nc(CNC(=O)c2ccc(F)c(F)c2)c2ccccc21	813
Cc1cccc(C)c1NC1=NCCCS1	635
CN1C/C=C/CCOc2cccc(c2)-c2ccnc(n2)Nc2cccc(c2)C1	742
O=C1CCc2cc(NC(=O)c3cc(-c4ccccc4)nc4ccccc34)ccc2N1	818
Cc1ccc(NC(=O)C(C)Oc2ccc(F)cc2)cc1C (centres undefined)	956
Cc1cc(C)c(NC(=O)CN2C(=O)CC(c3cccs3)=Nc3ccccc32)c(C)c1	954

Continued, values first:

RP-LC retention time [s]	SMILES
646	CCn1c(N2CCCC(C(=O)NCCOC)C2)cc(=O)n(C)c1=O (centres undefined)
1130	CC(C)n1cc(C2=CCN(S(=O)(=O)Cc3ccc(Cl)cc3)CC2)c2cccnc21
695	CCc1ccccc1NC(=O)N1CCN(c2cc(C)nc(N3CCOCC3)n2)CC1
984	CC(C)c1noc(-c2cc(=O)n(CC(=O)Nc3ccccc3F)c3ccccc23)n1
697	COc1ccc(C2Cn3cnc(C(=O)N4CCC(C(=O)NC5CCCCC5)CC4)c3CO2)cc1 (centres undefined)
649	COc1cc(Nc2c(C(=O)N3CCCCC3C)cnc3nc(C)ccc23)cc(OC)c1 (centres undefined)
624	CC(C)NC(=O)N1CCC(c2noc(-c3cnccn3)n2)C1 (centres undefined)
644	CCCCNC(=O)c1cc(NC(=O)C2CCC2)cc2nc(C)ccc12
560	CN1CCCC1c1nc(C2CN(C(=O)c3n[nH]c(=O)c4ccccc34)C2)no1 (centres undefined)
668	CCOC(=O)c1noc2nc(C)nc(NCCCN3CCN(c4ccccc4)CC3)c12
875	Cc1ccc(C(=O)N2CCC3(CC2)N=C(c2ccc(Br)cc2)NO3)cc1
647	COc1cc(C(=O)N2CCC(CC(=O)NC3CC3)CC2)cc(OC)c1OC
642	O=C(CSc1ccc(N2CCCC(C(=O)NC3CC3)C2)nn1)NCc1cc(F)cc(F)c1 (centres undefined)
901	COc1ccc(C(=O)N2CCC3(CC2)N=C(c2cccc(Br)c2)NO3)cc1F
582	O=C(Cn1nc(Cc2ccncc2)c2ccccc2c1=O)N1CCN(C(=O)c2ccco2)CC1
777	Cc1ccccc1CNC(=O)C1CCN(S(=O)(=O)c2ccc3c(c2)NC(=O)CO3)CC1
982	COc1cc(OC)c(NC(=O)c2[nH]c(C)c(S(=O)(=O)N3CCCC3)c2C)cc1Cl
775	O=C(NC(Cc1ccccc1)c1nnc(N2CCCCC2)o1)c1ccco1 (centres undefined)
901	Cc1cc(NC(=O)C2CCCN(C(=O)C3Sc4ccccc4NC3=O)C2)ccc1Br (centres undefined)
849	Cc1noc(/C=C\c2ccc(S(=O)(=O)N3CCN(c4ncccn4)CC3)cc2)c1NC(=O)C1CC1
723	CC1CCN(C(=O)c2cc(S(=O)(=O)N(C)CC(=O)NC(C)C)cn2C)CC1
814	Cc1cc(C)c(NC(=O)Cn2c(C)nc3onc(C)c3c2=O)c(C)c1
648	CCC1CN(C(=O)N2CCC(C(=O)NCCCN3CCOCC3)CC2)c2cc(C)ccc2O1 (centres undefined)
606	COc1ccc(N2CCN(CCNC(=O)CCSc3ccccc3)CC2)cc1
697	CCn1cnnc1C1CCCCN1C(=O)CCc1c[nH]c2ccccc12 (centres undefined)
802	Cc1ccc(N2CCC(NC(=O)C(C)(C)C)C2=O)cc1C (centres undefined)

RP-LC retention time [s]	SMILES
1080	O=C(NCc1ccccc1)C1CCCN(S(=O)(=O)c2cc(-c3noc(C4CCC4)n3)cs2)C1 (centres undefined)
596	CC(=O)N1CCC(CC(=O)N2CCc3nn(CC4CC4)c(=O)n3CC2)CC1
704	NC(=O)c1ccc2c(c1)CCCN2C(=O)c1ccc(Cl)cc1
766	O=C(NCCC1=CCCCC1)C1CCCN(c2cnc3nccnc3c2)C1 (centres undefined)
900	Cc1nc(-c2ccc(C(=O)NC3CCCCC3)cc2)cs1
756	Cc1ccc(C(=O)N2C(C(=O)NCc3ccco3)COC23CCN(C(=O)C(C)(C)C)CC3)cc1 (centres undefined)
840	O=c1n(Cc2c(F)cccc2Cl)nc2c(S(=O)(=O)N3CCCC3)cccn12
810	Cc1ccccc1OCC(=O)Nc1cnn(C)c(=O)c1N1CCOCC1
860	Cc1cc(C)c(NC(=O)Cn2c(N(C)Cc3ccccc3)nc(C)cc2=O)c(C)c1
899	CC(C)(C)c1ccc(C(=O)NC2CCN(c3cc(-c4ccc(F)cc4)[nH]n3)C2)cc1 (centres undefined)
1020	Cc1nc(-c2csc(S(=O)(=O)N3CCCC(C(=O)N4CCc5ccccc54)C3)c2)no1 (centres undefined)
986	Cc1noc2ncnc(N3CCCC(C(=O)N4CCC(Cc5ccccc5)CC4)C3)c12 (centres undefined)
978	CCOC(=O)c1ccc(NC(=O)C2CCC(=O)N2S(=O)(=O)c2ccc(C)c(C)c2)cc1 (centres undefined)
777	CCOc1ccc(S(=O)(=O)N2CCCC(C(=O)N3CCOCC3)C2)cc1 (centres undefined)
1080	CC(C)N1C(=O)C(CC(=O)Nc2cccc(OC(F)(F)F)c2)=C2CCCCC21 (centres undefined)
656	Cc1ccc2ncc(C(=O)NCCCOC(C)C)c(=O)n2c1
887	CCCCn1nc2ccc(S(=O)(=O)N3CCCCC3)cn2c1=O
699	CCN(CC)C(=O)c1ccc(-c2nc3cc(NS(=O)(=O)c4ccc(F)cc4)ccc3n2C)cc1
570	Cc1nc(N2CCN(C)CC2)cc(N2CCN(C(=O)c3ccc(Br)o3)CC2)n1
854	O=C(CN1CCN(Cc2cccc(Cl)c2)C1=O)NCc1ccc(N2CCCC2)cc1
838	Cc1ccc(-c2nnc(N3CCC(C(=O)NCc4ccc5c(c4)OCO5)CC3)o2)cc1
750	CC1(C(=O)NCc2ccccc2)CN(S(C)(=O)=O)CC(=O)N1c1ccc(F)cc1 (centres undefined)
917	COC(=O)c1c(C)c(C(=O)C(C)N(Cc2ccc(F)cc2)C(=O)C2CC2)c(C)n1C (centres undefined)
928	COc1ccccc1OCC1c2ccsc2CCN1C(=O)CN(CC1CC1)C(=O)C1CC1 (centres undefined)
866	COCCN1C(=O)c2ccccc2C(C(=O)NCc2cccc(F)c2)C12CCCC2 (centres undefined)
